In patent publication US9725675B2, “Lipid-soluble formulations containing mixtures of antioxidants” (KEMIN INDUSTRIES, INC., priority 2003, dated 2017):
Where “and” joins values, the source holds several entries; their conditions need not be identical. Equal entries are not always repeated.

Test: Oil Stability Index (OSI) induction time, AOCS Official Method Cd 12b-92, at 98° C.
Conditions: for OSI induction time (h) of formulations based on single antioxidants: 250 ppm of antioxidant formulation (20% active antioxidant in the carrier of Formulation 1), soybean oil, replicates 1-3; for OSI induction time of soybean oil stabilized with synthetic antioxidants: single antioxidants directly dissolved in soybean oil, 98° C., control 14.8 h
Excerpt: In order to evaluate the oxidative stability of an oil or fat sample an accelerated method is developed to speed up the oxidation process. […] This method is particularly suited to evaluate the effect of antioxidant stabilization of oils and fats.
Before oils and fats start to oxidize a resistance has to be overcome, after which the oxidation accelerates and becomes very rapid. The length of time before this rapid acceleration of oxidation is a measure of the resistance to oxidation and is commonly referred to as the ‘induction period’. In the Oil Stability Index (OSI method) the oxidative stability and the effect of antioxidant stabilization of oils and fats is determined. A stream of purified air is passed through a sample of oil, which is held in a thermostatic bath. In this experimental test the OSI was carried out at a temperature of 98° C. The effluent air from the oil or fat sample is then bubbled through a vessel containing deionized water. The conductivity of the water is continually monitored. The effluent air contains the volatile organic acids formed upon oxidizing the oil. The Oil Stability Index is defined as the point of maximum change of the rate of oxidation, or mathematically as the second derivative of the conductivity curve. As a consequence the induction point is a measure for the oxidative stability of the oil or fat system. The higher the induction point the higher the oxidative stability of the oil.

| OSI induction time of soybean oil stabilized with synthetic antioxidants (250 ppm) | OSI induction time of soybean oil stabilized with synthetic antioxidants (500 ppm) | OSI induction time of soybean oil stabilized with synthetic antioxidants (1000 ppm) | SMILES | OSI induction time (h) of formulations based on single antioxidants |
| --- | --- | --- | --- | --- |
| 35.8 h | 44.5 h | 53.1 h | CCCOC(=O)c1cc(O)c(O)c(O)c1 [Propyl gallate, propyl gallate] | 19.5 h and 21.5 h and 20.1 h |
| 30.6 h | 41.8 h | 47.4 h | O=C(O)c1cc(O)c(O)c(O)c1 [Gallic acid, gallic acid] | 21.6 h and 20.7 h and 22.0 h |
| 17.9 h | 20 h | – | Cc1cc(C(C)(C)C)c(O)c(C(C)(C)C)c1 [BHT, butylated hydroxyltoluene] | 15.5 h and 15.4 h and 15.0 h |
| 29.6 h | 38.6 h | 47.6 h | CCCCCCCCOC(=O)c1cc(O)c(O)c(O)c1 [Octyl gallate, octyl gallate] | 19.3 h (2×) and 19.5 h |

| SMILES | OSI induction time of soybean oil stabilized with synthetic antioxidants (250 ppm) | OSI induction time of soybean oil stabilized with synthetic antioxidants (500 ppm) | OSI induction time of soybean oil stabilized with synthetic antioxidants (1000 ppm) | OSI induction time (h) of formulations based on single antioxidants |
| --- | --- | --- | --- | --- |
| COc1ccc(O)c(C(C)(C)C)c1 [BHA, butylated hydroxyanisole] | 14.0 h | 15.5 h | 21.5 h | 14.0 h and 14.2 h and 14.5 h |
